Test [1] deals with Jurkat T-cells. Description: Transwell migration of Jurkat T-cells through collagen type-IV. It counts as cell-based, human. The following applies: peptide, SDF-1 in lower chamber. How it is done: (§1) FIGS. 4A-4H. […] Briefly, membranes from transwell migration chambers were coated with either native collagen type-IV or denatured collagen type-IV. T-cell variants were incubated with non-specific control peptide CP, or the RGDKGE (SEQ ID NO: 1)-containing collagen peptide (P2) and seed on the coated transwell membranes. T-cells were allowed to migrate in the presence or absence of SDF-1 added to the lower chamber for approximately 1.5 hours. Cell migration was quantified by counting the number of crystal violet stained cells that had migrated through to the underside of the coated membrane. FIG. 4A. Jurkat T-cell migration through denatured collagen type-IV in the presence of non-specific control peptide CP or RGDKGE (SEQ ID NO: 1)-containing collagen peptide P2 with SDF-1. FIG. 4B. Jurkat T-cell migration through native collagen type-IV in the presence of non-specific control peptide CP or RGDKGE (SEQ ID NO: 1)-containing collagen peptide P2 with SDF-1. FIG. 4C. Cem/C1 T-cell migration through denatured collagen type-IV in the presence of non-specific control peptide CP or RGDKGE (SEQ ID NO: 1)-containing collagen peptide P2 with SDF-1. FIG. 4D. […]
FIGS. 5A-5F. […] Cell migration was quantified by counting the number of crystal violet stained cells that had migrated through to the underside of the coated membrane. […]

Test [2] relates to Hut78 T-cells. The test can be described thus: Transwell migration of Hut78 T-cells through collagen type-IV. It counts as cell-based, human. The conditions noted are these: peptide, absence of SDF-1. The method, then: FIGS. 4A-4H. […] Briefly, membranes from transwell migration chambers were coated with either native collagen type-IV or denatured collagen type-IV. T-cell variants were incubated with non-specific control peptide CP, or the RGDKGE (SEQ ID NO: 1)-containing collagen peptide (P2) and seed on the coated transwell membranes. T-cells were allowed to migrate in the presence or absence of SDF-1 added to the lower chamber for approximately 1.5 hours. Cell migration was quantified by counting the number of crystal violet stained cells that had migrated through to the underside of the coated membrane. FIG. 4A. Jurkat T-cell migration through denatured collagen type-IV in the presence of non-specific control peptide CP or RGDKGE (SEQ ID NO: 1)-containing collagen peptide P2 with SDF-1. FIG. 4B. Jurkat T-cell migration through native collagen type-IV in the presence of non-specific control peptide CP or RGDKGE (SEQ ID NO: 1)-containing collagen peptide P2 with SDF-1. FIG. 4C. Cem/C1 T-cell migration through denatured collagen type-IV in the presence of non-specific control peptide CP or RGDKGE (SEQ ID NO: 1)-containing collagen peptide P2 with SDF-1. FIG. 4D. Cem/C1 T-cell migration through native collagen type-IV in the presence of non-specific control peptide CP or RGDKGE (SEQ ID NO: 1)-containing collagen peptide P2. FIG. 4E. Hut78 T-cell migration through denatured collagen type-IV in the presence of non-specific control peptide CP or RGDKGE (SEQ ID NO: 1)-containing collagen peptide P2. FIG. 4F. Hut78 T-cell migration through native collagen type-IV in the presence of non-specific control peptide CP or RGDKGE (SEQ ID NO: 1)-containing collagen peptide P2. FIG. 4G Primary CD8+ T-cell migration through denatured collagen type-IV in the presence of non-specific control peptide CP or RGDKGE (SEQ ID NO: 1)-containing collagen peptide P2 with SDF-1. FIG. 4H. CD8+ T-cell migration through native collagen type-IV in the presence of non-specific control peptide CP or RGDKGE (SEQ ID NO: 1)-containing collagen peptide P2 with SDF-1. Data bars indicate the mean cell migration±S.E. *P<0.05.
Given our new observations, and the fact that many tumor types as well as immunosuppressive macrophages can secrete the small soluble RGDKGE (SEQ ID NO: 1) collagen peptide, we next sought to determine whether this soluble collagen peptide could impact T-cell migration through denatured collagen type-IV, a critical ECM component shown to be selectively enriched in tumor vessels. Briefly, membranes from transwell migration chambers were coated with either native collagen type-IV or denatured collagen type-IV. […] Cell migration was quantified following staining cells with crystal violet (6,8). […]

The subject of test [3] is Cem/C1 T-cells. Description: Transwell migration of Cem/C1 T-cells through collagen type-IV. It counts as cell-based. The following applies: peptide, SDF-1. The method, then: as §1, with “4B.” for “4B. Jurkat T-cell migration through native collagen type-IV in the presence of non-specific control peptide CP or RGDKGE (SEQ ID NO: 1)-containing collagen peptide P2 with SDF-1. FIG. 4C. Cem/C1 T-cell migration through denatured collagen type-IV in the presence of non-specific control peptide CP or RGDKGE (SEQ ID NO: 1)-containing collagen peptide P2 with SDF-1. FIG. 4D.”
Given our new observations, and the fact that many tumor types as well as immunosuppressive macrophages can secrete the small soluble RGDKGE (SEQ ID NO: 1) collagen peptide, we next sought to determine whether this soluble collagen peptide could impact T-cell migration through denatured collagen type-IV, a critical ECM component shown to be selectively enriched in tumor vessels. […] Cell migration was quantified following staining cells with crystal violet (6,8). […]

Turning to “QGPRGDKGE (CQGPRGDKGEC; Synthetic: Synthetic collagen RGD containing peptide P-2) [Peptide P2, synthetic version of the soluble RGDKGE-containing collagen peptide]”, the “Jurkat T-cell migration” value is “selectively inhibited” in test [1] (denatured collagen type-IV) and “neither the soluble RGDKGE (SEQ ID NO: 1) collagen peptide P2, nor the non-specific control peptide had any significant effect” in test [1] (native collagen type-IV). In addition, the “Hut78 T-cell migration” value is recorded as “selectively inhibited” in test [2] (denatured collagen type-IV) and “neither the soluble RGDKGE (SEQ ID NO: 1) collagen peptide P2, nor the non-specific control peptide had any significant effect” in test [2] (native collagen type-IV). Besides, the “Cem/C1 T-cell migration” value is reported as “selectively inhibited” in test [3] (denatured collagen type-IV) and “neither the soluble RGDKGE (SEQ ID NO: 1) collagen peptide P2, nor the non-specific control peptide had any significant effect” in test [3] (native collagen type-IV).

(Values after US20240327506A1, “METHODS AND COMPOSITION FOR THE SELECTIVE ENHANCEMENT OF ADOPTIVE CELL THERAPY” (MaineHealth, priority 2023, published 2024).)
